Data from ChEMBL document CHEMBL2202954, “The effect of PLC-γ2 inhibitors on the growth of human tumour cells” (2012).

Assays:
Type in all cases: functional
Malme-3M = test: Cytotoxicity against human MALME-3M cells assessed as cellular growth at 10 uM by SRB assay
SK-MEL-28 = test: Cytotoxicity against human SK-MEL-28 cells assessed as cellular growth at 10 uM by SRB assay
A498 = test: Cytotoxicity against human A498 cells assessed as cellular growth at 10 uM by SRB assay
EKVX = test: Cytotoxicity against human EKVX cells assessed as cellular growth at 10 uM by SRB assay
OVCAR-4 = test: Cytotoxicity against human OVCAR4 cells assessed as cellular growth at 10 uM by SRB assay
IGROV-1 = test: Cytotoxicity against human IGROV1 cells assessed as cellular growth at 10 uM by SRB assay
SK-MEL-5 = test: Cytotoxicity against human SK-MEL-5 cells assessed as cellular growth at 10 uM by SRB assay
OVCAR-5 = test: Cytotoxicity against human OVCAR5 cells assessed as cellular growth at 10 uM by SRB assay
SNB-75 = test: Cytotoxicity against human SNB75 cells assessed as cellular growth at 10 uM by SRB assay
NCI-H322M = test: Cytotoxicity against human NCI-H322M cells assessed as cellular growth at 10 uM by SRB assay
HCT-15 = test: Cytotoxicity against human HCT15 cells assessed as cellular growth at 10 uM by SRB assay
HCT-116 = test: Cytotoxicity against human HCT116 cells assessed as cellular growth at 10 uM by SRB assay
LOX IMVI = test: Cytotoxicity against human LOXIMVI cells assessed as cellular growth at 10 uM by SRB assay
SK-OV-3 = test: Cytotoxicity against human SKOV3 cells assessed as cellular growth at 10 uM by SRB assay
COLO 205 = test: Cytotoxicity against human COLO205 cells assessed as cellular growth at 10 uM by SRB assay
UO-31 = test: Cytotoxicity against human UO31 cells assessed as cellular growth at 10 uM by SRB assay
T47D = test: Cytotoxicity against human T47D cells assessed as cellular growth at 10 uM by SRB assay
SR = test: Cytotoxicity against human SR cells assessed as cellular growth at 10 uM by SRB assay
NCI-H226 = test: Cytotoxicity against human NCI-H226 cells assessed as cellular growth at 10 uM by SRB assay
HOP-92 = test: Cytotoxicity against human HOP92 cells assessed as cellular growth at 10 uM by SRB assay

| Structure (SMILES) | Activity (Malme-3M) [%] | Activity (SK-MEL-28) [%] | Activity (A498) [%] | Activity (EKVX) [%] | Activity (OVCAR-4) [%] | Activity (IGROV-1) [%] | Activity (SK-MEL-5) [%] | Activity (OVCAR-5) [%] | Activity (SNB-75) [%] | Activity (NCI-H322M) [%] | Activity (HCT-15) [%] | Activity (HCT-116) [%] | Activity (LOX IMVI) [%] | Activity (SK-OV-3) [%] | Activity (COLO 205) [%] | Activity (UO-31) [%] | Activity (T47D) [%] | Activity (SR) [%] | Activity (NCI-H226) [%] | Activity (HOP-92) [%] |
| --- | --- | --- | --- | --- | --- | --- | --- | --- | --- | --- | --- | --- | --- | --- | --- | --- | --- | --- | --- | --- |
| COc1ccc2[nH]c(C(=O)NCc3ccccc3)cc2c1 | 88.8 | 110.55 | 92.89 | 78.14 | 93.84 | 99.05 | 97.92 | 116.46 | 87.91 | 90.03 | 94.58 | 94.88 | 103.84 | 108.16 | 123.53 | 75.52 | 85.87 | 91.93 | 96.37 |  |
| CC1(C)CCc2cc(-c3ccn(S(=O)(=O)c4ccccc4Cl)n3)ccc2O1 | 98.68 | 99.8 | 71.86 | 67.03 |  | 113.61 | 75.14 | 92.37 | 99.11 | 126.42 | 46.19 | 68.63 | 83.91 | 91.9 | 88.88 | 90.06 | 58.8 | 72.9 | 90.58 | 49.12 |
| O=c1/c(=C/c2ccc(Cl)cc2Cl)sc2nc(-c3ccccc3)nn12 | 136.07 | 117.34 | 112.37 | 111.1 |  | 130.42 | 106.75 |  | 116.38 | 127.05 | 100.58 | 106.75 | 95.09 | 109.75 | 132.3 | 114.46 | 90.03 | 94.63 | 98.92 | 104.34 |
| N#Cc1ccc(-n2nnc3ccccc32)cc1C#N | 96.58 | 104.11 | 72.76 | 79.18 | 110.46 | 103.62 | 97.62 | 110.44 | 120.55 | 111.4 | 99.78 | 102.06 | 99.41 | 98.76 | 104.26 | 88.55 | 86.31 |  | 96.73 | 103.19 |
| O=C(NCc1cccnc1)c1sc2cc([N+](=O)[O-])ccc2c1Cl | 105.28 | 110.01 | 66.73 | 90.5 | 102.6 | 106.67 | 96.88 | 105.26 | 91.37 | 101.48 | 97.65 | 99.66 | 102.15 | 91.06 | 118.05 | 76.73 | 84.08 |  | 97.25 | 98.76 |
| CC1(C)CCc2cc(-c3ccn(S(=O)(=O)c4ccc(Cl)cc4)n3)ccc2O1 |  | 94.67 | 70.82 | 54.5 |  |  | 47.2 | 100.71 | 92.32 | 94.19 | 91.33 | 61.1 | 72.15 | 91.35 | 116.9 | 75.63 | 54.12 | 45.51 | 74.42 | 8 |
| CC1(C)CCc2cc(-c3ccn(S(=O)(=O)c4cccc(C(F)(F)F)c4)n3)ccc2O1 | 102.22 | 105.56 | 94.88 | 70.44 |  | 109.7 | 69.29 | 108.57 | 102.76 | 106.64 | 89.34 | 74.24 | 92.84 | 96.16 | 123.8 | 97.36 | 66.31 | 66.68 | 90.51 | 38.91 |
| c1ccc(-c2nc(-c3cccs3)no2)cc1 | 131.39 | 117.87 | 96.9 | 102.25 |  | 83.5 | 97.58 |  | 105.81 | 122.94 | 94.44 | 104.23 | 99.72 | 106.03 | 114.24 | 88.86 | 65.5 | 97.61 | 91.26 | 75.75 |
| O=S(=O)(Oc1ccc(-c2cnc3ccccc3n2)cc1)c1ccc2ccccc2c1 |  | 112.84 | 85.21 | 94.26 |  |  | 84.35 | 109.35 | 119.77 | 137.19 | 115.04 | 94.69 | 115.1 | 102.69 | 121.42 | 118.94 | 91.09 | 93.61 | 98.79 | 101.74 |
| CC1(C)CC(=O)c2cc3c(N)c(C(=O)Nc4ccccc4Cl)sc3nc2C1 | 121.48 | 116.26 | 71.33 | 108.8 |  | 126.77 | 100.73 |  | 118.5 | 131.48 | 98.89 | 113.5 | 117.15 | 107.93 | 125.06 | 117.05 | 99.6 |  | 111.12 | 103.08 |
| Cc1ccc(NC(=O)c2sc3nc(-c4cccs4)ccc3c2N)cc1C | 118.51 | 113.95 | 88.5 | 103.49 |  | 117.67 | 98.52 | 115.16 | 111.99 | 123.82 | 109.09 | 106.03 | 101.98 | 112.05 | 112.33 | 126.96 | 96.25 | 82.09 | 107.93 | 106.34 |
| Nc1c(C(=O)Nc2ccccc2F)sc2nc3c(cc12)C(=O)CCC3 |  | 64.11 | -1.01 | 56.31 |  |  | 17.91 | 71.12 | 13.66 | 68.76 | 40.21 | 32.04 | 54.2 | 13.58 | 5.76 | 76 | 40.19 | 36.7 | 75.1 | 53.65 |
